# US4515708A, “Corrosion inhibitors” (Exxon Research & Engineering Co., priority 1982, dated 1985)
# Assay: Solubility Test (35 wt% solution in isopropylalcohol shaken with water, brine or heptane)
# Assay type: physicochemical
# Details: 0.3 ml of 35 wt% IPA solution in 10 ml heptane; 30 minutes and 24 hours
# Procedure: The active material under test was made up into a 35 wt% solution in isopropylalcohol (IPA). 0.3 ml of this solution was shaken with 10 ml of each of the liquids in which solubility is to be tested: water, 5 wt% NaCl solution (brine) and heptane. The mixture was observed after 30 minutes and 24 hours.
row,SMILES,SOLUBILITY IN: Heptane
1,CCCCCCCCCCCCNCCc1ccccn1 [Example 4],S
2,CCCCCCCCCCCCCCCCCCNCCc1ccccn1 [Example 7],S
3,c1ccc(CNCCc2ccccn2)cc1 [Example 8],S
4,CCCCCCCCCCCCNCCc1ccncc1 [Example 25],S

# Same assay, conditions: 0.3 ml of 35 wt% IPA solution in 10 ml water; observed after 30 minutes and 24 hours
row,SMILES,SOLUBILITY IN: Water
1,CCCCCCCCCCCCNCCc1ccccn1 [Example 4],S
2,CCCCCCCCCCCCCCCCCCNCCc1ccccn1 [Example 7],S
3,c1ccc(CNCCc2ccccn2)cc1 [Example 8],S
4,CCCCCCCCCCCCNCCc1ccncc1 [Example 25],S
5,CCCCCCCCCCCCCCCCCCNCCc1ccncc1 [Example 28],S

# Assay: Emulsion Test (3 wt% brine / heptane)
# Assay type: physicochemical
# Set-up: Emulsion thickness after 30 mins: unit not given here
# Details: 1 ml of 35 wt% IPA solution, 50 ml 3 wt% brine, 50 ml heptane
# Procedure: 1 ml of the solutions used for Test A was shaken with 50 ml of 3 wt% brine and 50 ml of heptane for 1 minute in a 150 ml bottle. The emulsion was observed, and the time noted for the emulsion to break and form a clean interface with clear liquid layers. If at 30 minutes this had not occurred, the appearance was recorded together with the thickness of any persisting emulsion.
row,SMILES,Time to break emulsion
1,CCCCCCCCCCCCNCCc1ccccn1 [Example 4],> 30 min
2,CCCCCCCCCCCCCCCCCCNCCc1ccccn1 [Example 7],> 30 min
3,c1ccc(CNCCc2ccccn2)cc1 [Example 8],> 30 min
4,CCCCCCCCCCCCNCCc1ccncc1 [Example 25],> 30 min
5,CCCCCCCCCCCCCCCCCCNCCc1ccncc1 [Example 28],> 30 min

# Same assay, conditions: 50 ml 3 wt% brine/50 ml heptane
row,SMILES,Emulsion thickness after 30 mins
1,CCCCCCCCCCCCNCCc1ccncc1 [Example 25],0.2
2,CCCCCCCCCCCCCCCCCCNCCc1ccncc1 [Example 28],4.0

# Same assay, conditions: hydrocarbon layer; 50 ml 3 wt% brine/50 ml heptane
row,SMILES,"Appearance after 30 mins, hydrocarbon"
1,CCCCCCCCCCCCNCCc1ccccn1 [Example 4],hazy
2,CCCCCCCCCCCCCCCCCCNCCc1ccccn1 [Example 7],emulsified
3,c1ccc(CNCCc2ccccn2)cc1 [Example 8],clear
4,CCCCCCCCCCCCNCCc1ccncc1 [Example 25],hazy
5,CCCCCCCCCCCCCCCCCCNCCc1ccncc1 [Example 28],hazy

# Same assay, conditions: water layer; 50 ml 3 wt% brine/50 ml heptane
row,SMILES,"Appearance after 30 mins, water"
1,CCCCCCCCCCCCNCCc1ccccn1 [Example 4],hazy
2,CCCCCCCCCCCCCCCCCCNCCc1ccccn1 [Example 7],clear
3,c1ccc(CNCCc2ccccn2)cc1 [Example 8],hazy
4,CCCCCCCCCCCCNCCc1ccncc1 [Example 25],hazy
5,CCCCCCCCCCCCCCCCCCNCCc1ccncc1 [Example 28],clear

# Assay: Corrosion Test 1 (dynamic wheel test; 3 wt% brine/Mentor 28; CO2 + H2S)
# Details: 2 ppm; 24 h, 70° C.; 30% solution
# Procedure: (§1) For each compound three mild steel coupons (approximately 100 mm×12 mm×1.5 mm) were tested at each concentration. Each was contacted in a 250 ml bottle with 200 ml of a test fluid either saturated with a carbon dioxide at 20° C. or containing 100 ppm hydrogen sulphide or having both CO2 and H2 S present in those amounts. The test fluid was treated with a 30% aqueous solution of the compound under test at 2, 10, 50 and 250 ppm except where indicated to the contrary. The coupon was subjected to a dynamic wheel test in which the bottle was mounted radially on the periphery of 650 mm diameter wheel which was rotated at about 40 rpm for 24 hours at 70° C. The weight loss was obtained, and also measured in a control experiment where no inhibitor was present. From this the % protection was calculated as % reduction in weight loss.
# Test fluid: 100 ml 3 wt% brine/100 ml Mentor 28 (Mentor®28 is a depolarised kerosene available from Exxon Chemical Company)
# (§2) Corrosives: Saturated CO2 +100 ppm H2 S
row,SMILES,% Protection
1,CCCCCCCCCCCCNCCc1ccccn1 [Example 4],21%
2,CCCCCCCCCCCCCCCCCCNCCc1ccccn1 [Example 7],13%
3,c1ccc(CNCCc2ccccn2)cc1 [Example 8],21%
4,CCCCCCCCCCCCNCCc1ccncc1 [Example 25],28%
5,CCCCCCCCCCCCCCCCCCNCCc1ccncc1 [Example 28],8%

# Same assay, conditions: 2 ppm; * active material added as undiluted compound; 24 h, 70° C.
row,SMILES,% Protection
1,c1ccc(CNCCc2ccccn2)cc1 [Example 8],46%

# Same assay, conditions: 10 ppm; 24 h, 70° C.; 30% solution
row,SMILES,% Protection
1,CCCCCCCCCCCCNCCc1ccccn1 [Example 4],73%
2,CCCCCCCCCCCCCCCCCCNCCc1ccccn1 [Example 7],52%
3,c1ccc(CNCCc2ccccn2)cc1 [Example 8],72%
4,CCCCCCCCCCCCNCCc1ccncc1 [Example 25],53%
5,CCCCCCCCCCCCCCCCCCNCCc1ccncc1 [Example 28],23%

# Same assay, conditions: 10 ppm; * active material added as undiluted compound; 24 h, 70° C.
row,SMILES,% Protection
1,c1ccc(CNCCc2ccccn2)cc1 [Example 8],53%

# Same assay, conditions: 50 ppm; 24 h, 70° C.; 30% solution
row,SMILES,% Protection
1,CCCCCCCCCCCCNCCc1ccccn1 [Example 4],93%
2,CCCCCCCCCCCCCCCCCCNCCc1ccccn1 [Example 7],87%
3,c1ccc(CNCCc2ccccn2)cc1 [Example 8],81%
4,CCCCCCCCCCCCNCCc1ccncc1 [Example 25],88%
5,CCCCCCCCCCCCCCCCCCNCCc1ccncc1 [Example 28],48%

# Same assay, conditions: 50 ppm; * active material added as undiluted compound; 24 h, 70° C.
row,SMILES,% Protection
1,c1ccc(CNCCc2ccccn2)cc1 [Example 8],88%

# Same assay, conditions: 250 ppm; 24 h, 70° C.; 30% solution
row,SMILES,% Protection
1,CCCCCCCCCCCCNCCc1ccccn1 [Example 4],94%
2,CCCCCCCCCCCCCCCCCCNCCc1ccccn1 [Example 7],95%
3,c1ccc(CNCCc2ccccn2)cc1 [Example 8],81%
4,CCCCCCCCCCCCNCCc1ccncc1 [Example 25],96%
5,CCCCCCCCCCCCCCCCCCNCCc1ccncc1 [Example 28],87%

# Same assay, conditions: 250 ppm; * active material added as undiluted compound; 24 h, 70° C.
row,SMILES,% Protection
1,c1ccc(CNCCc2ccccn2)cc1 [Example 8],97%

# Assay: Corrosion Test 2 (dynamic wheel test; 3 wt% brine; CO2 + H2S)
# Details: 2 ppm; 24 h, 70° C.
# Procedure: as §1
# Test Fluid: 200 ml 3 wt% brine
# as §2
row,SMILES,% Protection
1,CCCCCCCCCCCCNCCc1ccccn1 [Example 4],24%
2,CCCCCCCCCCCCCCCCCCNCCc1ccccn1 [Example 7],81%
3,c1ccc(CNCCc2ccccn2)cc1 [Example 8],37%
4,CCCCCCCCCCCCNCCc1ccncc1 [Example 25],5%
5,CCCCCCCCCCCCCCCCCCNCCc1ccncc1 [Example 28],11%

# Same assay, conditions: 10 ppm; 24 h, 70° C.
row,SMILES,% Protection
1,CCCCCCCCCCCCNCCc1ccccn1 [Example 4],94%
2,CCCCCCCCCCCCCCCCCCNCCc1ccccn1 [Example 7],89%
3,c1ccc(CNCCc2ccccn2)cc1 [Example 8],69%
4,CCCCCCCCCCCCNCCc1ccncc1 [Example 25],44%
5,CCCCCCCCCCCCCCCCCCNCCc1ccncc1 [Example 28],94%

# Same assay, conditions: 50 ppm; 24 h, 70° C.
row,SMILES,% Protection
1,CCCCCCCCCCCCNCCc1ccccn1 [Example 4],95%
2,CCCCCCCCCCCCCCCCCCNCCc1ccccn1 [Example 7],99%
3,c1ccc(CNCCc2ccccn2)cc1 [Example 8],75%
4,CCCCCCCCCCCCNCCc1ccncc1 [Example 25],79%
5,CCCCCCCCCCCCCCCCCCNCCc1ccncc1 [Example 28],96%

# Same assay, conditions: 250 ppm; 24 h, 70° C.
row,SMILES,% Protection
1,CCCCCCCCCCCCNCCc1ccccn1 [Example 4],96%
2,CCCCCCCCCCCCCCCCCCNCCc1ccccn1 [Example 7],99%
3,c1ccc(CNCCc2ccccn2)cc1 [Example 8],85%
4,CCCCCCCCCCCCNCCc1ccncc1 [Example 25],94%
5,CCCCCCCCCCCCCCCCCCNCCc1ccncc1 [Example 28],95%

# Assay: Corrosion Test 3 (dynamic wheel test; 3 wt% brine + Mentor 28; CO2 only)
# Details: 2 ppm; 24 h, 70° C.
# Procedure: as §1
# (§3) Test fluid: 100 ml 3 wt% brine+100 ml Mentor 28
# Corrosives: Saturated CO2 only
row,SMILES,% Protection
1,CCCCCCCCCCCCNCCc1ccccn1 [Example 4],0%
2,CCCCCCCCCCCCCCCCCCNCCc1ccccn1 [Example 7],2%
3,c1ccc(CNCCc2ccccn2)cc1 [Example 8],13%
4,CCCCCCCCCCCCNCCc1ccncc1 [Example 25],10%
5,CCCCCCCCCCCCCCCCCCNCCc1ccncc1 [Example 28],8%

# Same assay, conditions: 10 ppm; 24 h, 70° C.
row,SMILES,% Protection
1,CCCCCCCCCCCCNCCc1ccccn1 [Example 4],0%
2,CCCCCCCCCCCCCCCCCCNCCc1ccccn1 [Example 7],22%
3,c1ccc(CNCCc2ccccn2)cc1 [Example 8],32%
4,CCCCCCCCCCCCNCCc1ccncc1 [Example 25],6%
5,CCCCCCCCCCCCCCCCCCNCCc1ccncc1 [Example 28],12%

# Same assay, conditions: 50 ppm; 24 h, 70° C.
row,SMILES,% Protection
1,CCCCCCCCCCCCNCCc1ccccn1 [Example 4],7%
2,CCCCCCCCCCCCCCCCCCNCCc1ccccn1 [Example 7],48%
3,c1ccc(CNCCc2ccccn2)cc1 [Example 8],34%
4,CCCCCCCCCCCCNCCc1ccncc1 [Example 25],21%

# Same assay, conditions: 250 ppm; 24 h, 70° C.
row,SMILES,% Protection
1,CCCCCCCCCCCCNCCc1ccccn1 [Example 4],61%
2,CCCCCCCCCCCCCCCCCCNCCc1ccccn1 [Example 7],67%
3,c1ccc(CNCCc2ccccn2)cc1 [Example 8],37%
4,CCCCCCCCCCCCNCCc1ccncc1 [Example 25],27%
5,CCCCCCCCCCCCCCCCCCNCCc1ccncc1 [Example 28],9%

# Assay: Corrosion Test 4 (dynamic wheel test; 3 wt% brine + Mentor 28; H2S)
# Details: 2 ppm; 24 h, 70° C.
# Procedure: as §1, §3
# Corrosives: 100 ppm H2 S (prior nitrogen purge)
row,SMILES,% Protection
1,CCCCCCCCCCCCNCCc1ccccn1 [Example 4],20%
2,c1ccc(CNCCc2ccccn2)cc1 [Example 8],8%
3,CCCCCCCCCCCCNCCc1ccncc1 [Example 25],11%
4,CCCCCCCCCCCCCCCCCCNCCc1ccncc1 [Example 28],2%

# Same assay, conditions: 10 ppm; 24 h, 70° C.
row,SMILES,% Protection
1,CCCCCCCCCCCCNCCc1ccccn1 [Example 4],42%
2,c1ccc(CNCCc2ccccn2)cc1 [Example 8],12%
3,CCCCCCCCCCCCNCCc1ccncc1 [Example 25],17%
4,CCCCCCCCCCCCCCCCCCNCCc1ccncc1 [Example 28],3%

# Same assay, conditions: 50 ppm; 24 h, 70° C.
row,SMILES,% Protection
1,CCCCCCCCCCCCNCCc1ccccn1 [Example 4],50%
2,c1ccc(CNCCc2ccccn2)cc1 [Example 8],40%
3,CCCCCCCCCCCCNCCc1ccncc1 [Example 25],57%
4,CCCCCCCCCCCCCCCCCCNCCc1ccncc1 [Example 28],49%

# Same assay, conditions: 250 ppm; 24 h, 70° C.
row,SMILES,% Protection
1,CCCCCCCCCCCCNCCc1ccccn1 [Example 4],66%
2,c1ccc(CNCCc2ccccn2)cc1 [Example 8],55%
3,CCCCCCCCCCCCNCCc1ccncc1 [Example 25],78%
4,CCCCCCCCCCCCCCCCCCNCCc1ccncc1 [Example 28],56%

# Assay: Film persistency corrosion test
# Details: 500 ppm; CO2 + H2S; 24 h, 70° C.
# Procedure: […] A test fluid made up of equal proportions of 3 wt% brine and Mentor 28 was used, saturated with CO2 and containing 100 ppm H2 S as corrosives. Coupons were used as described for the previous corrosion test. A coupon was first immersed in test fluid containing corrosives and the inhibitor under test for 1 hour, then rinsed for 1 hour in a similar test fluid containing no inhibitor and finally transferred to a further test fluid again containing no inhibitor in which the dynamic wheel test was carried out at 70° C. for 24 hours.
row,SMILES,% Protection
1,CCCCCCCCCCCCNCCc1ccccn1 [Example 4],14%
2,CCCCCCCCCCCCCCCCCCNCCc1ccccn1 [Example 7],13%
3,c1ccc(CNCCc2ccccn2)cc1 [Example 8],19%
4,CCCCCCCCCCCCNCCc1ccncc1 [Example 25],17%
5,CCCCCCCCCCCCCCCCCCNCCc1ccncc1 [Example 28],16%

# Same assay, conditions: 1000 ppm; CO2 + H2S; 24 h, 70° C.
row,SMILES,% Protection
1,CCCCCCCCCCCCNCCc1ccccn1 [Example 4],14%
2,CCCCCCCCCCCCCCCCCCNCCc1ccccn1 [Example 7],10%
3,c1ccc(CNCCc2ccccn2)cc1 [Example 8],22%
4,CCCCCCCCCCCCNCCc1ccncc1 [Example 25],15%
5,CCCCCCCCCCCCCCCCCCNCCc1ccncc1 [Example 28],16%

# Same assay, conditions: 5000 ppm; CO2 + H2S; 24 h, 70° C.
row,SMILES,% Protection
1,CCCCCCCCCCCCNCCc1ccccn1 [Example 4],14%
2,CCCCCCCCCCCCCCCCCCNCCc1ccccn1 [Example 7],19%
3,c1ccc(CNCCc2ccccn2)cc1 [Example 8],24%
4,CCCCCCCCCCCCNCCc1ccncc1 [Example 25],20%
5,CCCCCCCCCCCCCCCCCCNCCc1ccncc1 [Example 28],23%
